Measurements taken from ChEMBL document CHEMBL1137775, “Structure-based design of a benzodiazepine scaffold yields a potent allosteric inhibitor of hepatitis C NS5B RNA polymerase” (J Med Chem, 2009).

Experiments:
[1] = system: Hepatitis C virus; assay: Inhibition of HCV 1b con1 isolate recombinant NS5B Cdelta21 RNA dependent RNA polymerase-mediated primer-dependent transcription by SPA; parameters: species or system Hepacivirus hominis
[2] = system: Hepatitis C virus; assay: Antiviral activity against HCV 1b having NS5B E1202G/T1280I/K1846 mutation infected in human hepatoma cells after 3 days by replicon luciferase assay; format: functional, organism-based, Hepacivirus hominis; details: genotype 1b, 72 h
[3] = system: Hepatitis C virus; assay: Binding affinity to HCV 1b con1 isolate recombinant NS5B Cdelta21 RNA dependent RNA polymerase overexpressed in Escherichia coli BL21(DE3) by surface plasmon resonance experiment; parameters: species or system Hepacivirus hominis

| SMILES | IC50 [1] [nM] | EC50 [2] [nM] | Kd [3] [nM] |
| --- | --- | --- | --- |
| Cc1cccc(C(=O)N2c3cccc(O)c3NC3=C([C@@H]2c2ccc(OCc4ccccc4)cc2F)S(=O)(=O)CC(C)(C)C3)n1 | 26 | 29 | – |
| Cc1cccc(C(=O)N2c3cccc(O)c3NC3=C(C2c2ccc(OCc4ccccc4)cc2F)S(=O)(=O)CC(C)(C)C3)n1 (racemic) | 120 | 52 | – |
| Cc1cccc(C(=O)N2c3cccc(O)c3NC3=C([C@H]2c2ccc(OCc4ccccc4)cc2F)S(=O)(=O)CC(C)(C)C3)n1 | 6700 | 4800 | – |
| Cc1cccc(C(=O)N2c3cccc(O)c3NC3=C(C(=O)CC(C)(C)C3)[C@@H]2c2ccc(OCc3ccccc3)cc2F)n1 | 74 | 400 | 15 |
| CC(=O)N1c2cccc(O)c2NC2=C(C(=O)CC(C)(C)C2)[C@@H]1c1ccc(OCc2ccccc2)cc1Cl | – | 1200 | – |
